Data reported in publication PMC5078010 (Oncotarget, 2016).
“Also recorded” adds a separate entry of the source. FAM = carboxyfluorescein

Tests used:
[1] = tested on: HDM2 P89S (residues 1-125) / p53; assay: In vitro pull-down, P89S; set-up: species or system human; conditions: PM2 10 μM; N-terminal point mutant P89S; p53 binding retained
Protocol: (§3) Protein G beads were incubated with anti-HA (1μg per 10μL beads) for 1 hour in PBST-3%BSA and subsequently washed thrice in PBST-0.1%BSA. IVT-expressed protein was incubated with the beads on a rotator for 30 mins. […] IVT-containing secondary protein was added to the mixture and incubation allowed for 1 hour. Beads were finally washed thrice in PBST-0.1%BSA and thrice with PBS, and bound proteins eluted by resuspension in 20μL SDS-PAGE loading buffer and incubation at 95 °C for 5 minutes. Where required, blank IVT extract (no template DNA added) was used as control. The eluates were subjected to electrophoresis, transferred to nitrocellulose membranes and probed for p53 with DO1-HRP or for HDM2 with anti-HA antibody followed by rabbit anti-mouse (Dakocytomation). Image acquisition was carried out using either film or digitally (Odyssey FC, Li-Cor).

[2] = tested on: HDM2 variant C12 (residues 1-125) / p53; assay: In vitro pull-down, selectant C12; type: binding, human; conditions: PM2 10 μM; HDM2 residues 1-125
Protocol: as §3

[3] = tested on: HDM2-C8 (full-length) / p53 in p53/MDM2-null DKO cells; assay: p53 reporter assay in DKO cells, HDM2-C8; type: cell-based, mouse
Protocol: (§1) Mouse embryonic fibroblast p53/Mdm2 double-knockout (DKO) cells (a kind gift from Guillermina Lozano) were maintained in Dulbecco's modified Eagle's medium (DMEM) with 10% (v/v) foetal calf serum (FCS) and 1% (v/v) penicillin/streptomycin. The cells were seeded at 1.0 × 10^5 cells/well in 6-well plates, 24 hours prior to transfection. Cells were co-transfected with parental or individual PM2-resistant HDM2 plasmid, p53-pcDNA plasmid, LacZ reporter plasmid and luciferase transfection efficiency plasmid using TurboFect transfection reagent (Thermo Scientific) according to the manufacturer's instructions. […] In all cases, the total amount of plasmid DNA transfected per well was equilibrated by addition of the parental vector pcDNA3.1a (+).
(§2) DKO cells were harvested 24hours post transfection and β-galactosidase activities were assessed using the Dual-light System (Applied Biosystems) according to the manufacturer's protocol. β-galactosidase activity was normalized with luciferase activity for each sample. To check for expression levels of relevant proteins via western blot, 5 μg of the cell lysates were probed for p53 with horseradish peroxidase conjugated DO1 antibody, for HDM2 and actin with anti-HA antibody and AC15 antibody respectively followed by rabbit anti-mouse.

[4] = tested on: HDM2-C8 (residues 1-125), M62A reverted / p53; assay: In vitro pull-down, C8 with M62A reverted; type: binding, human
Protocol: as §3

[5] = tested on: HDM2 F55L (residues 1-125) / p53; assay: In vitro pull-down, F55L; set-up: species or system human; conditions: PM2 10 μM; N-terminal point mutant F55L; p53 binding retained
Protocol: as §3

[6] = tested on: HDM2 variant C8 (residues 1-125) / p53; assay: In vitro pull-down, selectant C8; type: binding, human; conditions: PM2 10 μM; HDM2 residues 1-125
Protocol: as §3

[7] = tested on: HDM2 Y48C (1-125) / p53; assay: In vitro pull-down, Y48C; type: binding, human; conditions: HDM2 (1-125) Y48C
Protocol: as §3

[8] = tested on: HDM2 L34P (full length) / p53 in p53/MDM2-null DKO cells; assay: p53 reporter assay in DKO cells, L34P; type: cell-based, mouse; conditions: knockdown of p53 activity decreased ~7 fold vs WT
Protocol: Mouse embryonic fibroblast p53/Mdm2 double-knockout (DKO) cells (a kind gift from Guillermina Lozano) [58] were maintained in Dulbecco's modified Eagle's medium (DMEM) with 10% (v/v) foetal calf serum (FCS) and 1% (v/v) penicillin/streptomycin. The cells were seeded at 1.0 × 10^5 cells/well in 6-well plates, 24 hours prior to transfection. […] In all cases, the total amount of plasmid DNA transfected per well was equilibrated by addition of the parental vector pcDNA3.1a (+).

[9] = tested on: HDM2 I99V (full length) / p53 in p53/MDM2-null DKO cells; assay: p53 reporter assay in DKO cells, I99V; type: cell-based, mouse; conditions: knockdown reduced ~[…] vs WT
Protocol: as §1, §2

[10] = tested on: HDM2 F55A (1-125) / p53; assay: In vitro pull-down, F55A; type: binding, human; conditions: HDM2 (1-125) F55A
Protocol: as §3

[11] = tested on: HDM2 variant C11 (residues 1-125) / p53; assay: In vitro pull-down, selectant C11; type: binding, human; conditions: PM2 10 μM; HDM2 residues 1-125
Protocol: as §3

[12] = tested on: HDM2 V108A (N-terminal domain) / p53; assay: In vitro pull-down, V108A; type: binding, human; conditions: N-terminal point mutant V108A
Protocol: as §3

[13] = tested on: HDM2 Y60C (residues 1-125) / p53; assay: In vitro pull-down, Y60C; set-up: species or system human; conditions: PM2 10 μM; N-terminal point mutant Y60C; reduced p53 binding
Protocol: as §3

[14] = tested on: HDM2 K36E (1-125) / p53; assay: In vitro pull-down, K36E; type: binding, human; conditions: HDM2 (1-125) K36E
Protocol: as §3

[15] = tested on: HDM2 C77R (residues 1-125) / p53; assay: In vitro pull-down, C77R; type: binding, human; conditions: N-terminal point mutant C77R
Protocol: as §3

[16] = tested on: HDM2-F55L (residues 7-134, RFP fusion) / p53 (residues 1-81, GFP fusion) in F2H-BHK cells; assay: Fluorescent two-hybrid (F2H) co-localization assay; type: cell-based; conditions: PM2 0-50 μM, 6-8 hours, serum-free DMEM, 37°C; n=2
[17] = tested on: C8-derived point mutants in full-length HDM2 / p53; assay: In vitro pull-down, full-length point mutants; type: binding, human; conditions: PM2 10 μM; full-length HDM2, mutations displaying the PM2-resistant phenotype
Protocol: as §3

[18] = tested on: HDM2 P89S (full length) / p53 in p53/MDM2-null DKO cells; assay: p53 reporter assay in DKO cells, P89S; type: cell-based, mouse; conditions: PM2
Protocol: as §1, §2

[19] = tested on: HDM2 Y60C (full length) / p53 in p53/MDM2-null DKO cells; assay: p53 reporter assay in DKO cells, Y60C; type: cell-based, mouse; conditions: knockdown of p53 activity decreased ~7 fold vs WT
Protocol: as §1, §2

[20] = tested on: HDM2 F55L (full length) / p53 in p53/MDM2-null DKO cells; assay: p53 reporter assay in DKO cells, F55L; type: cell-based, mouse; conditions: knockdown reduced ~[…] vs WT
Protocol: as §1, §2

[21] = tested on: WT and indicated HDM2 (1-125) single and double point mutants / p53; assay: In vitro pull-down, Fig. S3; type: binding, human
Protocol: as §3

[22] = tested on: wild-type HDM2 (full-length) / p53 in p53/MDM2-null DKO cells; assay: p53 reporter assay in DKO cells, WT HDM2; type: cell-based, mouse; conditions: for p53 activity: percentage of p53-alone, ~ 6% without inhibitor
Protocol: as §1, §2

[23] = tested on: HDM2 Y67H (N-terminal domain) / p53; assay: In vitro pull-down, Y67H; type: binding, human; conditions: N-terminal point mutant Y67H
Protocol: as §3

[24] = tested on: WT and indicated C8-derived HDM2 (1-125) point mutants / p53; assay: In vitro pull-down, Fig. S1A; type: binding, human
Protocol: as §3

[25] = tested on: HDM2 I99V (residues 1-125) / p53; assay: In vitro pull-down, I99V; set-up: species or system human; conditions: PM2 10 μM; N-terminal point mutant I99V; p53 binding retained
Protocol: as §3

[26] = tested on: HDM2 L34P (residues 1-125) / p53; assay: In vitro pull-down, L34P; set-up: species or system human; conditions: PM2 10 μM; N-terminal point mutant L34P; reduced p53 binding
Protocol: as §3

[27] = tested on: WT and indicated C11/C12-derived HDM2 (1-125) mutants / p53; assay: In vitro pull-down, Fig. S1B; type: binding, human
Protocol: as §3

[28] = tested on: xenograft tumours in mice; p53; set-up: method as in PMID 25145672, PMID 26070072; conditions: cited from earlier work
[29] = tested on: HDM2 M62A; conditions: M62A mutation; earlier selection of Nutlin-resistant HDM2; cited from earlier work
[30] = tested on: HDM2 L82P; conditions: at the cost of reduced p53 binding; cited from earlier work
Description: The crystal structure of the stapled peptide M06 bound to HDM2-M62A was recently described. […] The side chains of L34 and Y60 pack against numerous hydrophobic residues contributing to the p53-binding hydrophobic cleft (Figure 8). Mutations to less bulky residues (P and C respectively) likely result in altered struc ...

[31] = target: T1, HDM2-F55L (amino acids 1-125), recombinant (human, UniProt Q00987 1-125, F55L); assay: fluorescence polarisation; competitive fluorescence anisotropy, apparent Kd; PM2 or p53 peptide titrated against wild-type HDM2 at 150 nM or HDM2-F55L at 200 nM with 50 nM FAM-12-1 peptide; PBS pH 7.4, 3% DMSO, 0.1% Tween-20; conditions: both partners purified
T1 construct: also called mutant HDM2-F55L; source: E. coli BL21(DE3) pLysS, purified (GSTrap, on-column PreScission cleavage, Resource S cation exchange)
T1 sequence (Q00987 1-125 F55L): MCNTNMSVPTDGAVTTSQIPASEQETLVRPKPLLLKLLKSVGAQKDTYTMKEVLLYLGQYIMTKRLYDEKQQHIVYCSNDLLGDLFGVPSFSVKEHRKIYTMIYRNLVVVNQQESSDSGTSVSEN

[32] = target: T2, HDM2 (amino acids 1-125), recombinant (human, UniProt Q00987 1-125); assay: as above; conditions: both partners purified
T2 construct: also called WT HDM2; source: E. coli BL21(DE3) pLysS, purified (GSTrap, on-column PreScission cleavage, Resource S cation exchange)
T2 sequence (Q00987 1-125): as the sequence (Q00987 1-125 F55L) above, with L55F counted along it

CC(=O)N[C@H](C(=O)N[C@@H](CO)C(=O)N[C@@H](Cc1ccccc1)C(=O)N[C@]1(C)CCCCCCC=CCCC[C@@](C)(C(N)=O)NC(=O)[C@H](CC(C)C)NC(=O)[C@H](CC(C)C)NC(=O)[C@H](C)NC(=O)[C@H](Cc2c[nH]c3ccccc23)NC(=O)[C@H](Cc2ccc(O)cc2)NC(=O)[C@H](CCC(=O)O)NC1=O)[C@@H](C)O [PM2]
PM2 resistance (inhibition of p53 pull-down) [1]: showed weak resistance to PM2 | PM2 resistance (inhibition of p53 pull-down) [2]: appeared significantly resistant to PM2, with little or no reduction in their interaction with p53 in the presence of PM2 | increase in p53 activity on addition of PM2 ([3]; PM2 20 μM): did not result in any significant increase in p53 activity | PM2 resistance after reversion of M62A in C8 [4]: little impact upon reversion of the M62A mutation to PM2 binding in HDM2-C8; also recorded: reversion of this mutation in the C8 selectant did not alter the phenotype | PM2 resistance (inhibition of p53 pull-down) [5]: showed weak resistance to PM2 | PM2 resistance (inhibition of p53 pull-down) [6]: appeared significantly resistant to PM2, with little or no reduction in their interaction with p53 in the presence of PM2 | resistance phenotype (p53 pull-down) [7]: Only the L54P mutation showed an exceptionally weak resistance phenotype | rescue of p53 activity by PM2 [8]: no rescue observed | magnitude of rescue of p53 activity by PM2 [9]: ~ 3.2 fold | effect of F55A on interaction with p53 or PM2 [10]: make little difference towards interaction with p53 or PM2 | PM2 resistance (inhibition of p53 pull-down) [11]: appeared significantly resistant to PM2, with little or no reduction in their interaction with p53 in the presence of PM2 | PM2 resistance (inhibition of p53 pull-down) [12]: showed no PM2-resistance phenotype | PM2 resistance (inhibition of p53 pull-down) [13]: clearly resistant to PM2 binding | resistance phenotype (p53 pull-down) [14]: Only the L54P mutation showed an exceptionally weak resistance phenotype | PM2 resistance (inhibition of p53 pull-down) [15]: showed no PM2-resistance phenotype | inhibition of p53-HDM2 F55L interaction compared to WT [16]: no significant difference compared to WT for inhibition | PM2 resistance (inhibition of p53 pull-down) [17]: reduced inhibition by PM2; also recorded: behaved similarly when introduced as point mutants into full-length HDM2 | behaviour in p53 reporter assay [18]: essentially behaved like wild-type HDM2 | rescue of p53 activity by PM2 [19]: no rescue observed | magnitude of rescue of p53 activity by PM2 [20]: ~ 3.2 fold | PM2 inhibition of p53 pull-down [21]: no significant reduction in PM2 inhibition | p53 activity ([22]; PM2 20 μM): ~ 26% | magnitude of rescue of p53 activity by PM2 ([22]; comparison with F55L and I99V (Figures 6B, 6C)): ~ 4 fold | PM2 resistance (inhibition of p53 pull-down) [23]: showed no PM2-resistance phenotype | PM2 inhibition of p53 pull-down [24]: no significant reduction in PM2 inhibition | PM2 resistance (inhibition of p53 pull-down) [25]: showed weak resistance to PM2 | PM2 resistance (inhibition of p53 pull-down) [26]: clearly resistant to PM2 binding | PM2 inhibition of p53 pull-down [27]: no significant reduction in PM2 inhibition

CC(C)(C)C[C@@H]1N[C@@H](C(=O)N[C@H]2CC[C@H](O)CC2)[C@H](c2cccc(Cl)c2F)[C@]12C(=O)Nc1cc(Cl)ccc12 [SAR405838]
development of resistance [28]: development of resistance to the Nutlin analogue SAR405838 was associated with a point-mutated p53 that still retained activity

Nutlin [reference compound]
effect of Nutlin on C8 function ([3]; Nutlin 10 μM): had little effect in abrogating the function of C8 | effect of M62A on Nutlin binding [29]: shown to abrogate Nutlin binding | resistance of L82P to Nutlin binding [30]: resistant to Nutlin binding at the cost of reduced p53 binding | rescue of p53 activity by Nutlin [19]: no rescue observed | p53 activity ([22]; Nutlin 10 μM): ~ 26%

B1: carboxyfluorescein (FAM) labelled 12-1 peptide (peptide)
peptide: {FAM}-RFMDYWEGL-NH2
notes: tracer peptide of the fluorescence anisotropy assay; also called the labelled peptide
binding result [31]: binds | binding result [32]: binds
